# According to publication PMC10819888, “Benzimidazole-Based Derivatives as Apoptotic Antiproliferative Agents: Design, Synthesis, Docking, and Mechanistic Studies” (Molecules, 2024):
# Key:
# Test in all cases: NCI-60 one-dose assay
# Assay type in all cases: cell-based
# [1] = test system: 786-0; conditions: Homo sapiens, 786-0 (Renal Cancer), read-out: Cell Inhibition Percent
# Description: (§1) The final compounds were submitted to the National Cancer Institute, Bethesda, USA, for screening in vitro for anti-cancer. […] compounds, 4a–j, 5, and 6, were selected according to the Development Therapeutic Program (DTP) protocol. The selected compounds were evaluated for their in vitro cytotoxic activity against a panel of sixty cancer cell lines (NCI-60 cell line panel) derived from six cell lines panel of leukemia, nine cell lines of lung cancer, six cell lines of CNS cancer, seven cell lines of colon cancer, eight cell lines of melanoma, six cell lines of ovarian cancer, eight cell lines of renal cancer, two cell lines of prostate cancer, and eight cell lines of breast cancer, representing the full nine human systems as leukemia, melanoma, and cancers of the lung, colon, brain, breast, ovary, kidney, and prostate.
# (§2) The selected compounds 4a–j, 5, and 6 were tested at a single concentration of 10 µM. The screening results for the selected compounds are illustrated in Table 1.
# (§3) The NCI anti-cancer screening methodology has been described in detail elsewhere (http://www.dtp.nci.nih.gov, accessed on 20 February 2021). Following the Drug Evaluation Branch protocol, National Cancer Institute, Bethesda, USA, a primary anti-cancer assay was performed on approximately 60 human tumor cell line panels derived from nine neoplastic diseases.
# [2] = test system: A549/ATCC; conditions: Homo sapiens, A549/ATCC (Non-Small Cell Lung Cancer), read-out: Cell Inhibition Percent
# Description: as §1, §2, §3
# [3] = test system: BT-549; conditions: Homo sapiens, BT-549 (Breast Cancer), read-out: Cell Inhibition Percent
# Description: as §1, §2, §3
# [4] = test system: CAKI-1; conditions: Homo sapiens, CAKI-1 (Renal Cancer), read-out: Cell Inhibition Percent
# Description: as §1, §2, §3
# [5] = test system: COLO 205; conditions: Homo sapiens, COLO 205 (Colon Cancer), read-out: Cell Inhibition Percent
# Description: as §1, §2, §3
# [6] = test system: DU-145; conditions: Homo sapiens, DU-145 (Prostate Cancer), read-out: Cell Inhibition Percent
# Description: as §1, §2, §3
# [7] = test system: HCT-15; conditions: Homo sapiens, HCT-15 (Colon Cancer), read-out: Cell Inhibition Percent
# Description: as §1, §2, §3
# [8] = test system: HL-60(TB); conditions: Homo sapiens, HL-60(TB) (Leukemia), read-out: Cell Inhibition Percent
# Description: as §1, §2, §3
# [9] = test system: HOP-92; conditions: Homo sapiens, HOP-92 (Non-Small Cell Lung Cancer), read-out: Cell Inhibition Percent
# Description: as §1, §2, §3
# [10] = test system: K-562; conditions: Homo sapiens, K562, K-562 (Leukemia), read-out: Cell Inhibition Percent
# Description: as §1, §2, §3
# [11] = test system: KM12; conditions: Homo sapiens, KM12 (Colon Cancer), read-out: Cell Inhibition Percent
# Description: as §1, §2, §3
# [12] = test system: M14; conditions: Homo sapiens, M14 (Melanoma), read-out: Cell Inhibition Percent
# Description: as §1, §2, §3
# [13] = test system: MCF7; conditions: Homo sapiens, MCF7 (Breast Cancer), read-out: Cell Inhibition Percent
# Description: as §1, §2, §3
# [14] = test system: MDA-MB 231; conditions: Homo sapiens, MDA-MB 231 (Breast Cancer), read-out: Cell Inhibition Percent
# Description: as §1, §2, §3
# [15] = test system: MOLT-4; conditions: Homo sapiens, MOLT-4 (Leukemia), read-out: Cell Inhibition Percent
# Description: as §1, §2, §3
# [16] = test system: NCI-H23; conditions: Homo sapiens, NCI-H23 (Non-Small Cell Lung Cancer), read-out: Cell Inhibition Percent
# Description: as §1, §2, §3
# [17] = test system: NCI-H322M; conditions: Homo sapiens, NCI-H322M (Non-Small Cell Lung Cancer), read-out: Cell Inhibition Percent
# Description: as §1, §2, §3
# [18] = test system: NCI-H460; conditions: Homo sapiens, NCI-H460 (Non-Small Cell Lung Cancer), read-out: Cell Inhibition Percent
# Description: as §1, §2, §3
# [19] = test system: NCI-H522; conditions: Homo sapiens, NCI-H522 (Non-Small Cell Lung Cancer), read-out: Cell Inhibition Percent
# Description: as §1, §2, §3
# [20] = test system: OVCAR-5; conditions: Homo sapiens, OVCAR-5 (ovarian cancer), read-out: Cell Inhibition Percent
# Description: as §1, §2, §3
# [21] = test system: PC-3; conditions: Homo sapiens, PC-3 (Prostate Cancer), read-out: Cell Inhibition Percent
# Description: as §1, §2, §3
# [22] = test system: RXF 393; conditions: Homo sapiens, RXF 393 (Renal Cancer), read-out: Cell Inhibition Percent
# Description: as §1, §2, §3
# [23] = test system: SF-268; conditions: Homo sapiens, SF-268 (CNS cancer), read-out: Cell Inhibition Percent
# Description: as §1, §2, §3
# [24] = test system: SF-295; conditions: Homo sapiens, SF-295 (CNS cancer), read-out: Cell Inhibition Percent
# Description: as §1, §2, §3
# [25] = test system: SF-539; conditions: Homo sapiens, SF-539 (CNS cancer), read-out: Cell Inhibition Percent
# Description: as §1, §2, §3
# [26] = test system: SK-MEL-28; conditions: Homo sapiens, SK-MEL-28 (Melanoma), read-out: Cell Inhibition Percent
# Description: as §1, §2, §3
# [27] = test system: SK-MEL-5; conditions: Homo sapiens, SK-MEL-5 (Melanoma), read-out: Cell Inhibition Percent
# Description: as §1, §2, §3
# [28] = test system: SN12C; conditions: Homo sapiens, SN12C (Renal Cancer), read-out: Cell Inhibition Percent
# Description: as §1, §2, §3
# [29] = test system: SW-620; conditions: Homo sapiens, SW-620 (Colon Cancer), read-out: Cell Inhibition Percent
# Description: as §1, §2, §3
# [30] = test system: U251; conditions: Homo sapiens, U-251, U251 (CNS cancer), read-out: Cell Inhibition Percent
# Description: as §1, §2, §3
# [31] = test system: UACC-62; conditions: Homo sapiens, UACC-62 (Melanoma), read-out: Cell Inhibition Percent
# Description: as §1, §2, §3
SMILES,inhibition at 10 µM [1],inhibition at 10 µM [2],inhibition at 10 µM [3],inhibition at 10 µM [4],inhibition at 10 µM [5],inhibition at 10 µM [6],inhibition at 10 µM [7],inhibition at 10 µM [8],inhibition at 10 µM [9],inhibition at 10 µM [10],inhibition at 10 µM [11],inhibition at 10 µM [12],inhibition at 10 µM [13],inhibition at 10 µM [14],inhibition at 10 µM [15],inhibition at 10 µM [16],inhibition at 10 µM [17],inhibition at 10 µM [18],inhibition at 10 µM [19],inhibition at 10 µM [20],also measured
"COc1ccc(C=NNC(=O)c2ccc3[nH]c(-c4ccc(Cl)cc4)nc3c2)cc1 [Compound 4g, N′-(4-Methoxybenzylidene)-2-(4-chlorophenyl)-1H-benzimidazole-5-carbohydrazide]",96.8%,88%,43.1%,39.5%,77.1%,20.7%,42.5%,3.67%,64%,68.1%,82.7%,73.8%,83.3%,60.2%,31.8%,58.5%,44.1%,94.1%,17.4%,22.7%,inhibition at 10 µM [21]: 104%; inhibition at 10 µM [22]: 56.2%; inhibition at 10 µM [23]: 80.1%; inhibition at 10 µM [24]: 139%; inhibition at 10 µM [25]: 57.4%; inhibition at 10 µM [26]: 87.5%; inhibition at 10 µM [27]: 66.3%; inhibition at 10 µM [28]: 93.8%; inhibition at 10 µM [29]: 75.6%; inhibition at 10 µM [30]: 92%; inhibition at 10 µM [31]: 69.1%
"COc1cc(/C=N/NC(=O)c2ccc3[nH]c(-c4ccc(Cl)cc4)nc3c2)cc(OC)c1OC [Compound 4h, N′-(3,4,5-Trimethoxybenzylidene)-2-(4-chlorophenyl)-1H-benzimidazole-5 carbohydrazide]",48.8%,14.2%,29.3%,24%,54.3%,2.57%,3.98%,55.1%,28.3%,67.3%,38.2%,58%,87.9%,0%,58.5%,46.3%,12.4%,17.2%,21.7%,0%,inhibition at 10 µM [21]: 40.1%; inhibition at 10 µM [22]: 63.7%; inhibition at 10 µM [23]: 20.3%; inhibition at 10 µM [24]: 56%; inhibition at 10 µM [25]: 56.2%; inhibition at 10 µM [26]: 53.5%; inhibition at 10 µM [27]: 58.1%; inhibition at 10 µM [28]: 31.5%; inhibition at 10 µM [29]: 21.3%; inhibition at 10 µM [30]: 46.8%; inhibition at 10 µM [31]: 71.3%
"O=C(N/N=C/c1ccc(O)cc1)c1ccc2[nH]c(-c3ccc(Cl)cc3)nc2c1 [Compound 4i, N′-(4-Hydroxybenzylidene)-2-(4-chlorophenyl)-1H-benzimidazole-5-carbohydrazide]",0%,0%,0%,1.91%,0.44%,0%,0%,0%,0%,0.25%,2.85%,0.44%,25.1%,2.75%,15.6%,4.44%,0.47%,0%,9.85%,0%,inhibition at 10 µM [21]: 0%; inhibition at 10 µM [22]: 0%; inhibition at 10 µM [23]: 13.7%; inhibition at 10 µM [24]: 0%; inhibition at 10 µM [25]: 1.95%; inhibition at 10 µM [26]: 0%; inhibition at 10 µM [27]: 4.32%; inhibition at 10 µM [28]: 0%; inhibition at 10 µM [29]: 0%; inhibition at 10 µM [30]: 0%; inhibition at 10 µM [31]: 5.2%
